# Tested on: homologous passive cutaneous anaphylaxis (PCA)
# Test: Homologous passive cutaneous anaphylaxis (PCA) in rats, test compounds given orally
# Format: in vivo, Wistar male rats
# Conditions: po; rat, 200 mg/kg p.o., 2 hours prior to injection of antigen and Evans blue; read-out: INHIBITION (%) of PCA (amount of dye leaked vs control group)
# Experimental: "Homologous passive cutaneous anaphylaxis (PCA) in rats."
# Wistar male rats weighing from 120 to 150 g were used in the present experiment. Reaginic antibody was obtained from rats immunized with 2,4-dinitrophenyl-coupled ascaris extract (DNP-As) mixed with Bordetella pertussis. Normal rats were sensitized passively with an intradermal injection of the diluted antiserum. After 48 hours of the sensitization, the mixture of antigen (DNP-As) and Evans blue was injected intravenously. The animals were sacrificed by a blow on the head 30 minutes after challenging with antigen. The area blued as a result of PCA was excised and the amount of dye leaked was measured photometrically after the extraction of same with acetone containing sodium carbonate.
# The test compounds were suspended in 0.5% aqueous solution of sodium carboxymethylcellulose (CMC) and administered 200 mg/kg p.o. 2 hours prior to the injection of a mixture of antigen and Evans blue. […] The efficacy of the test compounds to inhibit the PCA was compared with the value (%) calculated using the following formula: [formula] A: Amount of dye leaked in the control group B: Amount of dye leaked in the group treated with test compound
row,Compound,inhibition in vivo at 200 mg/kg
1,"O=C(C=Cc1ccccc1)Nc1cccc(C(=O)O)c1 [3-(cinnamoylamino)benzoic acid, reference compound]",10.8%
2,O=C(O)Cc1ccccc1NC(=O)C=Cc1ccc(Cl)cc1 [2-(4'-chlorocinnamoylamino)phenylacetic acid],53.3%
3,O=C(O)Cc1ccc(NC(=O)C=Cc2ccc(O)cc2)cc1 [4-(4'-hydroxycinnamoylamino)phenylacetic acid],34.3%
4,"O=C(C=Cc1ccccc1)Nc1ccccc1C(=O)O [N-cinnamoyl-anthranilic acid, reference compound]",18.1%
5,"COc1ccc(C=CC(=O)Nc2ccccc2CC(=O)O)cc1OC [2-(3',4'-dimethoxycinnamoylamino)phenylacetic acid]",63.9%
6,"COc1ccc(CCC(=O)Nc2ccccc2OCC(=O)O)cc1OC [2-(3',4'-dimethoxyhydrocinnamoylamino)phenoxyacetic acid]",25.9%
7,O=C(O)Cc1cccc(NC(=O)C=Cc2ccccc2)c1 [3-(cinnamoylamino)phenylacetic acid],39.8%
8,"COc1ccc(C=CC(=O)Nc2cccc(CCC(=O)O)c2)cc1OC [β-[3-(3',4'-dimethoxycinnamoylamino)]phenylpropionic]",47.2%
9,"O=C(C=Cc1ccccc1)Nc1ccc(C(=O)O)cc1 [4-(cinnamoylamino)benzoic acid, reference compound]",7.5%
10,"COc1ccc(C=CC(=O)Nc2ccccc2OCC(=O)O)cc1OC [2-(3',4'-dimethoxycinnamoylamino)phenoxyacetic acid]",42.6%
11,"COc1ccc(C(C)=CC(=O)Nc2ccccc2CC(=O)O)cc1OC [2-(3',4'-dimethoxy-β-methylcinnamoylamino)phenylacetic]",37.3%
12,"COc1ccc(C=CC(=O)Nc2ccccc2CCC(=O)O)cc1OC [β-[2-(3',4'-dimethoxycinnamoylamino)]phenylpropionic]",27%
13,"CCCOc1ccc(C=CC(=O)Nc2ccccc2OCC(=O)O)cc1OC [2-(3'-methoxy,4'-propoxycinnamoylamino)phenoxyacetic acid]",32.1%
14,"OCC(O)COc1ccc(Cl)cc1 (stereo not shown) [chlorphenesin, reference compound]",39.7%

# Same assay, conditions: rat, 200 mg/kg p.o., 2 hours prior to injection of antigen and Evans blue
row,Compound,INHIBITION (%) of PCA (amount of dye leaked vs control group)
1,Cc1ccc(C=CC(=O)Nc2ccc(OCC(=O)O)cc2)cc1 [β-[4-(4'-methylcinnamoylamino)]phenoxyacetic acid],75.9%
2,COc1ccc(C=CC(=O)Nc2ccc(CC(=O)O)cc2)cc1 [4-(4'-methoxy-β-cinnamoylamino)phenylacetic acid],85.3%

# Tested on: release of chemical mediators from cells
# Test: not given
# Conditions: caused by an antigen-antibody reaction; cited from earlier work
row,Compound,inhibiting release of chemical mediators from cells
1,O=C(O)c1cc(=O)c2c(OCC(O)COc3cccc4oc(C(=O)O)cc(=O)c34)cccc2o1 [disodium chromoglycate],effective for inhibiting release of chemical mediators from cells

# Tested on: experimental anaphylaxis / antiallergic effect
# Test: not given
# Conditions: oral, mammalia; known reference compounds; cited from earlier work
row,Compound,antiallergic effect when administered orally
1,cinnamoylaminobenzoic acid [unsubstituted cinnamoylaminobenzoic acid],only a slightly weak antiallergic effect
2,O=C(O)c1cc(=O)c2c(OCC(O)COc3cccc4oc(C(=O)O)cc(=O)c34)cccc2o1 [disodium chromoglycate],not at all expected when this compound is administered orally
